Experimental findings from patent US12310946B2, “Pharmaceutical composition for oral administration of edaravone and method of administering same” (MITSUBISHI TANABE PHARMA CORPORATION, priority 2020, dated 2025) are described below.

The data set is described as follows: in vitro. To be noted: human, Caco-2, pH 7.4.

Description: Caco-2 cells were seeded on a 24-well plate, cultured at 37° C. for 21 to 23 days in a CO2 incubator, and then a Caco-2 cell monolayer membrane permeability test was conducted. After checking the membrane resistance value of the cell layer after the culture, the culture medium in the plate was replaced with HBSS (pH 7.4). […] For the control compounds, [^3H]propranolol as a high membrane permeability control and [^14C]mannitol as a low membrane permeability control were used.

`OC[C@@H](O)[C@@H](O)[C@H](O)[C@H](O)CO` [[^14C]Mannitol, [^14C]mannitol] displayed an apical-to-basolateral permeability (Papp A→B) at 2 h, 10 μmol/L of 0.53 ± 0.007 ×10⁻⁶ cm/s. In the case of `CC(C)NCC(O)COc1cccc2ccccc12` (centres unmarked) [[^3H]Propranolol, [^3H]propranolol] it was 28.9 ± 1.1 ×10⁻⁶ cm/s.
